Laboratory results taken from patent US20110112099A1, “THERAPEUTIC AGENT FOR CANCER RESISTANT TO PROTEASE INHIBITOR” (KYOWA HAKKO KIRIN CO., LTD., priority 2007, published 2011).
pIC50: −log10 of the molar value. Read-outs that look alike come from different tables or passages of the source. Where a SMILES comes first, the peptide text is derived from it. The star is where a group is joined. Cbz = O=C(OCc1ccccc1)*

Columns and labels:
[1] = system: KMS-11 cells; experiment: Test for the growth inhibition to KMS-11 (WST-1, 72 hours); format: cell-based, human; conditions: read-out: IC50 KMS-11 (growth-inhibitory effect, viable cell number)
Description: (§1) A cell solution (90 μL/well) of KMS-11 or KMS-11/Bor suspended in an RPMI1640 medium containing 10% FCS (hereinafter referred to as culture medium) at a concentration of 5×10^4 cells/mL was inoculated in a 96-well microplate (Nunc), and as for a blank the culture medium (100 μL/well each) was added, and the plate was incubated in a 5% carbon dioxide incubator for 5 hours.
(§2) The test compound was serially diluted to yield a diluted solution having a concentration of 10-fold of the final concentration, and the solution (10 μL/well each) was added (n=3 for one concentration). As for a control, the culture medium containing no test compound (10 μL/well each) was added. The tests for the control and the blank were performed in n=8. The incubation was carried out for 72 hours after addition of the test compound, and the number of viable cells was counted with a cell proliferation reagent WST-1 (WST-1 reagent; Roche Diagnostics). The WST-1 reagent (10 μL/well) was added to each plate. The plate was incubated in a carbon dioxide incubator for 2 hours, then stirred on a plate mixer, and the absorbance was measured at 450 nm and 655 nm using a microplate spectrophotometer (Molecular Device; SPECTRAmax 340PC-384). For each well, the differential absorbance was calculated by subtracting the absorbance at 655 nm from that at 450 nm. Further, the absorbance corresponding to the viable cell number was calculated by subtracting the differential absorbance of the blank from the above differential absorbance.
(§3) The followings describe the calculation method for IC50. The absorbance corresponding to the viable cell number obtained in the wells untreated with the test compound was regarded as 100%, and the absorbance obtained in the wells treated with the test compound was represented by the relative value (% control). From these values, the IC50 of viable cell number (the concentration at which the viable cell number is reduced to 50% of the control) was calculated. FIGS. 1 to 4 show the % control at the respective concentration of the test compound after treatment with the test compound. […]

[2] = system: KMS-11/Bor (bortezomib-resistant KMS-11 cells); experiment: Test for the growth inhibition to KMS-11/Bor (WST-1, 72 hours); format: cell-based, human; conditions: for pIC50: KMS-11/Bor cells, 72 hours, WST-1, read-out: IC50 KMS-11/Bor (growth-inhibitory effect, viable cell number); for IC50 ratio (IC50 of KMS-11/Bor divided by IC50 of KMS-11): degree of bortezomib resistance, KMS-11/Bor vs KMS-11
Description: KMS-11 cells were suspended in an RPMI1640 medium containing 10% fetal calf serum (FCS) at a concentration of 5×10^4 cells/mL, and incubated at 37° C. in a 5% carbon dioxide incubator. Then, bortezomib was added thereto to adjust the final concentration of 5 nmol/L, and the incubation was continued. After confirmation of the survival and satisfactory growth of the cells, the cells were suspended at a concentration of 5×10^4 cells/mL, then bortezomib was added at a concentration of 10 nmol/L, and the incubation was continued. Then, after confirmation of the survival and satisfactory growth of the cells, the concentration of bortezomib was increased step by step, and the culture and subculture were repeated to create the bortezomib-resistant KMS-11 cells being capable of growing at a concentration of 100 nmol/L of bortezomib. Hereinafter, thus prepared cell line was referred to as “KMS-11/Bor”.
as §1, §2
(§4) The followings describe the calculation method for IC50. The absorbance corresponding to the viable cell number obtained in the wells untreated with the test compound was regarded as 100%, and the absorbance obtained in the wells treated with the test compound was represented by the relative value (% control). From these values, the IC50 of viable cell number (the concentration at which the viable cell number is reduced to 50% of the control) was calculated. FIGS. 1 to 4 show the % control at the respective concentration of the test compound after treatment with the test compound. […] In addition, values in which IC50 of KMS-11/Bor is divided by IC50 of KMS-11 (IC50 ratio) is shown in Table 3 as the degree of bortezomib resistance in the respective test compounds.

[3] = system: OPM-2 cells; experiment: Test for the growth inhibition to OPM-2 (WST-1, 72 hours); format: cell-based, human; conditions: read-out: IC50 OPM-2 (growth-inhibitory effect, viable cell number)
Description: as §1, with “OPM-2” for “KMS-11”, “OPM-2/Bor” for “KMS-11/Bor”
as §2, with “concentration” for “concentration,”
as §3, with “FIGS. 5” for “FIGS. 1”, “to 8” for “to 4”

[4] = system: OPM-2/Bor (bortezomib-resistant OPM-2 cells); experiment: Test for the growth inhibition to OPM-2/Bor (WST-1, 72 hours); format: cell-based, human; conditions: for pIC50: OPM-2/Bor cells, 72 hours, WST-1, read-out: IC50 OPM/Bor (growth-inhibitory effect, viable cell number); for IC50 ratio (IC50 of OPM-2/Bor divided by IC50 of OPM-2): degree of bortezomib resistance, OPM-2/Bor vs OPM-2
Description: OPM-2 cells were suspended in an RPMI1640 medium containing 10% fetal calf serum (FCS) at a concentration of 5×10^4 cells/mL, and incubated at 37° C. in a 5% carbon dioxide incubator. Then, bortezomib was added thereto to adjust the final concentration of 2.5 nmol/L, and the incubation was continued. After confirmation of the survival and satisfactory growth of the cells, bortezomib was added at a concentration of 3.75 nmol/L, and the incubation was continued. Then, after confirmation of the survival and satisfactory growth of the cells, the concentration of bortezomib was increased step by step, and the culture and subculture were repeated to create the bortezomib-resistant OPM-2 cells being capable of growing at a concentration of 15 nmol/L of bortezomib. Hereinafter, thus prepared cell line was referred to as “OPM-2/Bor”.
as §1, with “OPM-2” for “KMS-11”, “OPM-2/Bor” for “KMS-11/Bor”
as §2, with “concentration” for “concentration,”
as §4, with “FIGS. 5” for “FIGS. 1”, “to 8” for “to 4”, “IC50 ratio for OPM-2/Bor was” for “IC50 of KMS-11/Bor is”, “of OPM-2” for “of KMS-11”, “Table 4” for “Table 3”

[5] = system: OPM-2/Bor cells; experiment: Anti-tumor effect in a mouse model to which the OPM-2/Bor cells have been implanted; format: in vivo; conditions: for T/C value (V/V0 of group divided by V/V0 of negative control group): Day 14, OPM-2/Bor implanted scid mice
Description: The day before the implantation of cancer cells, an anti-asialo GM1 antibody (0.3 mg/mouse each) was administered intraperitoneally to Fox C. B-17/Icr-scidJcl mice (CLEA Japan, Inc.). The OPM-2/Bor cells were grown by incubation in an RPMI1640 medium containing 10% FCS at 37° C. in a 5% carbon dioxide incubator, and implanted into the ventral subcutaneous portion at a dose of 1×10^7 cells/mouse. Eighteen days after implantation, the major axis and minor axis of the tumor growing in the subcutaneous portion were measured with a vernier micrometer, and the tumor volume was calculated according to the following equation.
At the same time, the body weight of each mouse was measured, and the mice were divided into the following administration groups consisting of 5 mice per group so that the average tumor volume and the average body weight became uniform; and this day was regarded as the test-starting day 0, on which the administration was started.
Compound 22 was dissolved in physiological saline (Otsuka Pharmaceutical Co., Ltd.) at a concentration of 10 or 5 mg/mL, and administered intravenously in the tail vein at a dose of 0.01 mL/g body weight of mouse, respectively, (corresponding to 100 mg/kg and 50 mg/kg) twice a day continuously up to the 4th day from the starting day 0.
Bortezomib was dissolved in physiological saline at a concentration of 0.1 or 0.05 mg/mL, and administered intravenously in the tail vein at a dose of 0.01 mL/g body weight of mouse, respectively, (corresponding to […] and 0.5 mg/kg) once a day on the starting day 0, […].
A. Negative control group (Control): No administration of the test compound B. Bortezomib administered group: 1 mg/kg (administered once a day on the days 0, 3, 7, and 10) C. […]
Following the day 0, the tumor volume was measured twice a week. The anti-tumor effect was determined by calculating the average value of the tumor volume in each group and comparing a change of the tumor volume (V/V0), wherein the tumor volume on the day 0 was defined as V0.

[6] = system: refractory/recurrent multiple myeloma; conditions: clinical, New England Journal of Medicine 348, 2609; cited from earlier work
[7] = system: refractory/recurrent multiple myeloma; conditions: phase I, 17-AAG alone; cited from earlier work
[8] = system: refractory/recurrent multiple myeloma; conditions: phase I, IPI-504 alone; cited from earlier work

Compound	pIC50 ([1]; Homo sapiens)	pIC50 ([2]; Homo sapiens)	IC50 ratio (IC50 of KMS-11/Bor divided by IC50 of KMS-11) [2]	pIC50 ([3]; Homo sapiens)	pIC50 ([4]; Homo sapiens)	IC50 ratio (IC50 of OPM-2/Bor divided by IC50 of OPM-2) [4]	T/C value (V/V0 of group divided by V/V0 of negative control group) ([5]; B group: 1 mg/kg intravenously once a day on days 0, 3, 7, 10)	T/C value (V/V0 of group divided by V/V0 of negative control group) ([5]; C group: 0.5 mg/kg intravenously once a day on days 0, 3, 7, 10)	Anti-tumor effect, change of tumor volume (V/V0), FIG. 9 ([5]; OPM-2/Bor implanted mice, Compound 22 100 and 50 mg/kg, bortezomib 1 and 0.5 mg/kg)	Share of refractory/recurrent multiple myeloma in which the drug is effective [6]	Share of refractory/recurrent multiple myeloma in which the drug is ineffective [6]	pIC50 [1]	pIC50 [2]	pIC50 [3]	pIC50 [4]	Patients with stable disease (SD) or more effect [7]	Cases with SD as anti-tumor effect [8]
CC(C)C[C@H](NC(=O)[C@H](Cc1ccccc1)NC(=O)c1cnccn1)B(O)O [Bortezomib, bortezomib]	8.09	6.77	21	8.41	6.96	28	0.85	1.0	did not show a remarkable growth inhibitory effect	approximately 35%	approximately 40%	–	–	–	–	–	–
C=CCNC1=C2C[C@@H](C)C[C@H](OC)[C@H](O)[C@@H](C)/C=C(\C)[C@H](OC(N)=O)[C@@H](OC)/C=C\C=C(/C)C(=O)NC(=CC1=O)C2=O [Compound 17-AAG, 17-allylamino-17-demethoxygeldanamycin]	–	–	0.76	–	–	1.1	–	–	–	–	–	7.09	7.21	6.51	6.46	9 out of the 22	–
C=CCNc1c(O)cc2c(O)c1C[C@@H](C)C[C@H](OC)[C@H](O)[C@@H](C)/C=C(\C)[C@H](OC(N)=O)[C@@H](OC)/C=C\C=C(/C)C(=O)N2 [IPI-504]	–	–	–	–	–	–	–	–	–	–	–	–	–	–	–	–	3 out of the 17
CC(C)C[C@@H](C=O)NC(=O)[C@H](CC(C)C)NC(=O)[C@H](CC(C)C)NC(=O)OCc1ccccc1 [MG-132] (Cbz-Leu-Leu-Leu-aldehyde)	6.59	5.70	7.7	7.03	5.82	16	–	–	–	–	–	–	–	–	–	–	–
